How the values were obtained:
uterus of juvenile rats = experiment: Juvenile rat uterus assays; assay type: in vivo, Sprague Dawley rats; conditions: fulvestrant 50 mg/kg
From the text: […] Rats were euthanized 4 hr after the final dose. Uteri were then dissected, weighed and fixed for histological examination. A small portion of tissue was saved prior to fixation for mRNA isolation and gene expression analysis.
H&E stained sections from bilateral representative uterine horn cross-sections were examined from two animals treated with the compounds shown. Endometrial cell height was digitally measured from the basement membrane to the apical (luminal) surface (orange line), using a digitally scanned image at 20X magnification. Obliquely cut areas were avoided. Three digital measurements were taken from each section (n = 6).
Estrogen receptor was detected using the mouse monoclonal anti-ER (clone 1D5, Dako), incubated for 60 min at RT at a dilution of 0.5 µg/ml, and visualized after secondary rabbit anti-mouse antibody binding with Powervision DAB (Leica Powersystems). H-scores were estimated manually, incorporating both intensity and percentage of positive nuclei, using the following formula: (0 x% negative)+(1 x% weak)+(2 x% moderate)+(3 x% strong)

WHIM20 tumors = assay type: in vivo, mice; conditions: no E2 pellets; GDC-0810 100 mg/kg/day; tamoxifen 60 mg/kg/day; fulvestrant 50 mg/kg days 1, 3 and 7, 25 mg/kg weekly thereafter; 35 days
From the text: Figure 8. […] (B) Gene expression analysis of WHIM20 tumors after 4 days of dosing, harvested 8 hr after the final dose. […] (E) WHIM20 tumors were implanted in mice without supplemental 17β-estradiol pellets.
The WHIM20 patient derived xenograft model (WHIM20) was established via direct implantation of metastatic tumor material into immune compromised mice at Washington University in St. Louis ([Li et al., 2013]).
Tumors were established from fragments obtained from Washington University by subcutaneous implantation via 10G trocar into the right flank of 6–7 week old female NOD.CB17-Prkdc^scid/NcrCrl mice (Charles River Laboratories) and NOD.Cg-Prkdc^scid Il2rg^tm1Wjl/SzJ mice (Jackson Laboratories). Tumor line was propagated by serial transplantation. Animals were ovariectomized prior to initiation of treatment.

TamR1 tumors = experiment: Tamoxifen-resistant MCF7 (TamR1) xenograft efficacy; assay type: in vivo, mice; conditions: 0.18 mg 60 day E2 pellets; tamoxifen 120 mg/kg/day p.o.; fulvestrant 200 mg/kg 3x/week s.c.; GDC-0810 10, 30 or 100 mg/kg/day p.o.; 27 days
Method: We previously generated a tamoxifen-resistant xenograft model, TamR1, by chronically treating MCF7 tumor bearing mice with tamoxifen until a resistant tumor emerged ([Lai et al., 2015]). […] These experiments were conducted in mice with relatively high levels of circulating estradiol, with estradiol being delivered via 0.72 mg 60 day release E2 pellets that are reported by the manufacturer (Innovative Research) to deliver between 300 and 400 pg/ml estradiol. Under these conditions the high E2 reduces the steady state ERα protein levels, thus confounding the readout of ERα protein as a pharmacodynamic endpoint (Figure 5—figure supplement 1). […] These pellets are sufficient to support tumor growth but only modestly reduce ERα levels (Figure 5—figure supplement 1).
Figure 5. […] (A) Tamoxifen-resistant MCF7 tumors were implanted in animals supplemented with 60-day release 0.18 mg 17β-estradiol pellets. […] S.c. is sub-cutaneous dosing, and p.o. is per os (by mouth) oral gavage dosing. * Denotes significance (p<0.05) compared to Vehicle in 1-Way ANOVA and Dunnett's Multiple Comparison Test. Figure 5—figure supplement 1. Effects of estradiol pellet on ERα levels in MCF7-TamR1 xenograft tumors. TamR1 tumor fragments were implanted into Crl:NU-Foxn1^nu mice implanted with either 0.72 or 0.18 mg/60 day 17-β estradiol pellets. Once tumors were established pellets were removed from 1 group. 28 days after pellet removal ERα protein levels were determined for 4 tumors from each group. Data is presented as average compared to Vehicle (-E2). Error is standard deviation. * Denotes significance (p<0.05) compared to Vehicle (-E2) by T-test. [drawing 7] […] (A) ERα protein levels were determined by western blot analysis of tumors 8 hr following the final compound treatment on day 27. […] KI-67 expression, quantified from IHC analysis. […]
The tamoxifen-resistant derivative of the ER+ human tumor cell line, MCF7 (TamR1) was developed by Seragon Pharmaceuticals, Inc ([Lai et al., 2015]). […] The tumors which continued to grow under these conditions were serially passaged and evaluated for continued tamoxifen resistance. […]

[1] = test system: HCI-003 patient derived xenograft tumors; experiment: HCI-003 patient derived xenograft efficacy; assay type: in vivo, mice; conditions: tamoxifen 60 mg/kg/day orally; fulvestrant 200 mg/kg 3x/week; 38 days
From the text: Like MCF7, HCI-003 tumors are ER+, E2 dependent and tamoxifen sensitive (Figure 4—figure supplement 1C). […] Lack of efficacy in this ER-negative model is consistent with the GDC-0810 mechanism of action being selectively mediated through ER.
The HCI-003 model was established at the University of Utah, Huntsman Cancer Center via direct implantation of both primary tumor material into immune compromised mice ([DeRose et al., 2011]). HCI-003 is wild-type at the ESR1 ligand binding domain. Exogenous estradiol is required for robust growth of this patient derived tumor line, and is supplied in the form of estradiol impregnated beeswax pellets. Tumor fragments obtained from the Huntsman Cancer Center were surgically implanted into the cleared mammary fat pad of 19 day old female NOD.CB17-Prkdc^scid/NcrCrl mice (Charles River Laboratories). The right mammary fat pad of recipient animals was exposed by a 1 cm incision on the ventral mid-line at the level of the fourth mammary. The blood vessels were cauterized and the fat pad blunt dissected from the abdominal wall and skin. Tumor fragments were excised from donor animals, chopped into fragments approximately 8 mm^3 (2 × 2 × 2 mm), implanted in the region of the cleared mammary fat pad, and the incision was closed with wound clips. Estradiol impregnated beeswax pellets were implanted subcutaneously into the interscapular space of recipient animals on the day of tumor implant. Recipient animals were ovariectomized 19 days after tumor fragment implant. One group of animals was designated as a control for estradiol independent tumor growth (Vehicle-E2) and the estradiol impregnated pellets were excised on the first day of dosing. All mice were housed and maintained according to the animal-use guidelines of the Institutional Animal Care and Use Committee (IACUC), conforming to California State legal and ethical practices.

For `CC/C(=C(\c1ccccc1)c1ccc(OCCN(C)C)cc1)c1ccccc1` [Tamoxifen], the Uterine wet weight (uterus of juvenile rats; tamoxifen 60 mg/kg orally once a day for 3 days, GDC-0810 0.1 or 10 mg/kg, relative to vehicle control) was “increases uterine wet weight”, the “Endometrial epithelial cell morphology (histology, endometrial cell height)” value (uterus of juvenile rats; tamoxifen 60 mg/kg, GDC-0810 0.1 and 10 mg/kg) was “induced a cuboidal to columnar morphological change” and the “Tumor growth response, WHIM20 PDX” value (WHIM20 tumors) was “induced tumor stasis”. The “Tumor growth response, TamR1 xenograft, lower E2” value (TamR1 tumors) was “stimulated tumor growth” and the “Anti-tumor activity, HCI-003 PDX (Figure 4—figure supplement 1C)” value [1] was “display anti-tumor activity”.

Source: paper PMC4961458 (eLife, 2016)
